According to patent EP4678638A1, “NEW E3 UBIQUITIN LIGASE LIGAND, PROTEIN DEGRADATION AGENT AND USE THEREOF” (priority 2023, dated 2024):

Tests used:
[1] = molecular target: T1, human Cereblon WT GST-tagged protein (Homo sapiens, UniProt Q96SW2); assay: CRBN binding, HTRF (CEREBLON BINDING kit); conditions: Table II-2, CRBN binding screening, HTRF; for inhibition at 0.5 µM: read-out: Inhibition rate (%) at 0.5µM; for inhibition at 2 µM: read-out: Inhibition rate (%) at 2 µM
T1 construct: purchased CISBIO 64BDCRBNPEH
T1 sequence (Q96SW2 whole entry): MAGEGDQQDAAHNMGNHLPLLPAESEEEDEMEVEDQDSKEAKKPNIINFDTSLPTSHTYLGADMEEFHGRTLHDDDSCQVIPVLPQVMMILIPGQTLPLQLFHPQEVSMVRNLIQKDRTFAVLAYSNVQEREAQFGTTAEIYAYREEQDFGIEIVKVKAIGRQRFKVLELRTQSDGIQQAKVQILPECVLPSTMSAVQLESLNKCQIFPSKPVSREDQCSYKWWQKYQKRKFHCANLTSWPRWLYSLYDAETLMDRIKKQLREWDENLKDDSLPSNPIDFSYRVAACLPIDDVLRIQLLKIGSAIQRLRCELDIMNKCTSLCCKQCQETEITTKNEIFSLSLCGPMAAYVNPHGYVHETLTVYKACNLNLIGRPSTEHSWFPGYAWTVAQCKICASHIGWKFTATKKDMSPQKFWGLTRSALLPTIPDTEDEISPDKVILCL
In short: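 Competitive HTRF: GST-tagged human WT Cereblon mixed with compound, Thalidomide-Re tracer and GST Eu antibody, incubated 3 h at room temperature. Signals read at 620 and 665 nm.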

ALK = molecular target: T2, ALK (Homo sapiens, UniProt Q96SW2+Q9HC35+Q9UM73); assay: Western blot degradation of ALK (H2228 Cell); format: cell-based; conditions: Table D5
T2 construct: evaluate the effects of the compounds of the present disclosure on the expression of target proteins in cells; endogenous in cells; host or cells: H2228
T2 sequence (Q9HC35+Q9UM73 fused): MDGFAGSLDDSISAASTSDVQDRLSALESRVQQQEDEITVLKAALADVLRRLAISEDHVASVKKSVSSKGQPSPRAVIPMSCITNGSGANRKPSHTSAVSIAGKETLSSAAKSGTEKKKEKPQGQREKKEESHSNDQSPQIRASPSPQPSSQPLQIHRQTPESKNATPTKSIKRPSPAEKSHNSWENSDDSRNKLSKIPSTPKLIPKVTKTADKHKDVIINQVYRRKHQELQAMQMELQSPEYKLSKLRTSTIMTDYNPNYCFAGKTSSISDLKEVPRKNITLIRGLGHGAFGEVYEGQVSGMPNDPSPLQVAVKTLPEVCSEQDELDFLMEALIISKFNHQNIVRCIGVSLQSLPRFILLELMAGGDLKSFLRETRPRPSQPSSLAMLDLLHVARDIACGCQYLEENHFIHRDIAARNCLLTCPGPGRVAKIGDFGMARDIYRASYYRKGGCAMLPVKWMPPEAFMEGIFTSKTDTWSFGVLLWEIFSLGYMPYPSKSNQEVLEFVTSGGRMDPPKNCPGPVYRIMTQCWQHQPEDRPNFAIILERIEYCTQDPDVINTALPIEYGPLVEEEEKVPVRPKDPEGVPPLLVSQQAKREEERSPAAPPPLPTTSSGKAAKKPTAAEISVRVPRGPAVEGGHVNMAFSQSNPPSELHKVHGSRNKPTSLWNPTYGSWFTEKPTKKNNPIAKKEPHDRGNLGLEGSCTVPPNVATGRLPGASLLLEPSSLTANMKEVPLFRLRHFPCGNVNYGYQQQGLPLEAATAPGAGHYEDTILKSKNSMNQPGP
T2 sequence (Q96SW2 whole entry): as the sequence (Q96SW2 whole entry) above
T2 sequence (Q16531 whole entry partner): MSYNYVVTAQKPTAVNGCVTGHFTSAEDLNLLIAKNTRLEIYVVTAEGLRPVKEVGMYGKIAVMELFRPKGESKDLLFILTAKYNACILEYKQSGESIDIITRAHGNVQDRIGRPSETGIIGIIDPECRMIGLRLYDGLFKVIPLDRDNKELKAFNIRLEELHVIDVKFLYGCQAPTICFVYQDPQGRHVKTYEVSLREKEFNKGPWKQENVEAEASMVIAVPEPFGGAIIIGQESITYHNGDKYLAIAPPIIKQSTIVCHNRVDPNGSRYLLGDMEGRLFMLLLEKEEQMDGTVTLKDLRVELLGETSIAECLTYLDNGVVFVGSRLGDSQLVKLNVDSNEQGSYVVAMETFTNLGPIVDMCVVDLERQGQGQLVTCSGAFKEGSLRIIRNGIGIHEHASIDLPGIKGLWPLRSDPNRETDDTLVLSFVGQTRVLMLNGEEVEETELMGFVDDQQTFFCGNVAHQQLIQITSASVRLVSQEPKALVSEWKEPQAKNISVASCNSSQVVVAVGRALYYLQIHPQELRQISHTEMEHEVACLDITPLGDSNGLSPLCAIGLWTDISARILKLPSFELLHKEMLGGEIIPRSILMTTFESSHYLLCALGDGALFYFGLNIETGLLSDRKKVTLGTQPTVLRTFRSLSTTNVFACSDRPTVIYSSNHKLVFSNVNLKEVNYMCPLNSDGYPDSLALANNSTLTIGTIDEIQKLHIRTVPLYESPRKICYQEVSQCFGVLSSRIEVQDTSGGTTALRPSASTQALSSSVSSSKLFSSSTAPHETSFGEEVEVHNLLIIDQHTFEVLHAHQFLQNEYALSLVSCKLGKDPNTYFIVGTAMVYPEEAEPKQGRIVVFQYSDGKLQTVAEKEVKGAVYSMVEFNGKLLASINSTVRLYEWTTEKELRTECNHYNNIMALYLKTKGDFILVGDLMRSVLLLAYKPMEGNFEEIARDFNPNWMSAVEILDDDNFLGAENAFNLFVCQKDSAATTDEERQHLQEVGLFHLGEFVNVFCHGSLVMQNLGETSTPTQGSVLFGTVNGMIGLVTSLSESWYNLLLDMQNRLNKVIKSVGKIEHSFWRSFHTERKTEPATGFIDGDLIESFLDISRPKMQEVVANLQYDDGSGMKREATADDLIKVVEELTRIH
Procedure: Conventional Western blot assay was performed to evaluate the effects of the compounds of the present disclosure on the expression of target proteins in cells.
(1) Cell Seeding and Protein Harvesting: The selected cells were processed according to the cell seeding procedure and protein harvesting procedure in Table III-2. Table III-2 Cell Seeding and Protein Harvesting Procedures
(2) To the collected supernatant, 5X SDS sample loading buffer was added, followed by denaturation at 95°C for 5 minutes. The denatured samples were then separated by SDS-PAGE electrophoresis on a polyacrylamide gel. Proteins were transferred to a nitrocellulose membrane (0.45 µm NC membrane), blocked with blocking buffer at room temperature for 1 hour, and subjected to antibody incubation and development procedures according to the antibody manufacturer's instructions (Cell Signaling Technology).
Half-Maximal Degradation Concentration value (the drug concentration required for degrading proteins by 50%, abbreviated as DC50) reads method: comparing the grayscale values of Western blot bands from drug-treated samples with those from blank DMSO-treated controls, and identifying the drug concentration range at which the grayscale value is half that of the DMSO-treated control bands.
DC50 values can be calculated using ImageJ software to measure grayscale values of Western blot bands from drug-treated samples. The concentration-response curve is fitted to estimate the drug concentration corresponding to half the grayscale value.
Target protein remaining (%) refers to the percentage of target protein remaining in hPBMC cells after treatment with protein degrader compounds.
Calculation method for target protein remaining (%): Use ImageJ software to measure grayscale values of Western blot bands from drug (protein degrader)-treated samples. The grayscale value of drug-treated bands is divided by that of internal control protein bands, and the resulting quotient is normalized to obtain the relative percentage of remaining target protein after protein degrader treatment.
Target protein degradation rate (%) = 100% - target protein remaining (%).

H1975 = assay: CCK-8 proliferation, NCI-H1975 (H1975); format: cell-based, Human; conditions: Homo sapiens, NCI-H1975; Table B6, compounds designed based on the ALK inhibitors; H1975 cells; read-out: Inhibitory activity (IC50, nM) on tumor cell proliferation, H1975
In short: (§1)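 Cells seeded, then after 24 h treated with 10 concentrations (top 10 µM, 5-fold serial dilution) for a line-specific time at 37°C, 5% CO2. Viability read by CCK-8; IC50 fitted from growth-inhibition curves.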

SR = assay: CCK-8 proliferation, SR; format: cell-based, Human; conditions: Homo sapiens; Table B6, compounds designed based on the ALK inhibitors; SR cells; read-out: Inhibitory activity (IC50, nM) on tumor cell proliferation, SR
In short: as §1

H2228 = assay: CCK-8 proliferation, NCI-H2228 (H2228); format: cell-based; conditions: Homo sapiens, NCI-H2228; Table B6, compounds designed based on the ALK inhibitors; H2228 cells; read-out: Inhibitory activity (IC50, nM) on tumor cell proliferation, H2228
Procedure: The tumor cells used herein were cultured in a cell culture medium listed in table A1 at 37°C in an incubator with 5% CO2. Prior to experimentation, all cell lines used were correctly identified by STR profiling, and tested negative for mycoplasma contamination using a mycoplasma detection kit through routine screenings. Table A1. Tumor cells and cell culture medium used in the present disclosure
IC50 values of the compounds of the present disclosure (including the compounds in Table 1, and compounds of examples) were measured using the Meilun Cell Counting Kit-8 kit from Dalian Meilun Biotech Co., Ltd. Assay details are as follows: tumor cells were seeded in a 96-well plate at a density listed in Table A2. After 24h, 100 µL of the inoculated cells were treated with 0.5µL of the compounds of the present disclosure (including the compounds in Tables 1 and 2, and compounds of examples) at 10 different successively decreasing concentrations (starting at the highest concentration of 10µM; 5-fold serial dilutions). After the cells were treated with the compounds of the present disclosure for a period of time, the cell viability detection reagent was added to the culture medium for cell viability assessment according to the instructions provided with the CCK-8 kit. […] The growth inhibition of the compounds of the present disclosure on cells was plotted by Prism Graphpad software, and the IC50 values of the compounds of the present disclosure were calculated therefrom. […] Seeding protocol and treatment time for tumor cells

COc1cc(N2CCN(Cc3ccc(C4CCC(=O)NC4=O)cc3)CC2)ccc1Nc1ncc(Cl)c(Nc2ccccc2P(C)(C)=O)n1 (stereo not drawn) [GT-03781, 3-(4-((4-(4-((5-chloro-4-((2-(dimethylphosphoryl)phenyl)amino)pyrimidin-2-yl)amino)-3-methoxyphenyl)piperazin-1-yl)methyl)phenyl)piperidine-2,6-dione]
inhibition at 0.5 µM [1]: 40 to 53%
inhibition at 2 µM [1]: 60 to 80%
Degradation of substrate protein ALK (substrate protein remaining %) (ALK): A (A is defined as 0% ≤ substrate protein remaining % ≤ 80%)
IC50 (H1975): 500 to 1000 nM
IC50 (SR): 1 to 10 nM

COc1cc(N2CCN(Cc3ccc(C4CCC(=O)NC4=O)c(F)c3)CC2)ccc1Nc1ncc(Cl)c(Nc2ccccc2P(C)(C)=O)n1 (stereo not drawn) [GT-03782, 3-(4-((4-(4-((5-chloro-4-((2-(dimethylphosphoryl)phenyl)amino)pyrimidin-2-yl)amino)-3-methoxyphenyl)piperazin-1-yl)methyl)-2-fluorophenyl)piperidine-2,6-dione]
inhibition at 0.5 µM [1]: 40 to 53%
inhibition at 2 µM [1]: 80 to 100%
Degradation of substrate protein ALK (substrate protein remaining %) (ALK): A (A is defined as 0% ≤ substrate protein remaining % ≤ 80%)
IC50 (SR): 10 to 50 nM

CCc1cc2c(cc1N1CCN(Cc3cccc(N4CCC(=O)NC4=O)c3)CC1)C(C)(C)c1[nH]c3cc(C#N)ccc3c1C2=O [GT-07325, 8-(4-(3-(2,4-dioxotetrahydropyrimidin-1(2H)-yl)benzyl)piperazin-1-yl)-9-ethyl-6,6-dimethyl-11-oxo-6,11-dihydro-5H-benzo[b]carbazole-3-carbonitrile]
IC50 (H2228): 100 to 500 nM
Degradation of substrate protein ALK (substrate protein remaining %) (ALK): A (A is defined as 0% ≤ substrate protein remaining % ≤ 80%)
IC50 (SR): 10 to 50 nM

COc1cc(N2CCC(N(C)Cc3cnc(N4CCC(=O)NC4=O)cn3)CC2)ccc1Nc1ncc(Cl)c(Nc2ccccc2P(C)(C)=O)n1 [GT-07751, 1-(5-(((1-(4-((5-chloro-4-((2-(dimethylphosphoryl)phenyl)amino)pyrimidin-2-yl)amino)-3-methoxyphenyl)piperidin-4-yl)(methyl)amino)methyl)pyrazin-2-yl)dihydropyrimidine-2,4(1H,3H)-dione]
Degradation of substrate protein ALK (substrate protein remaining %) (ALK): A (A is defined as 0% ≤ substrate protein remaining % ≤ 80%)

CCc1cc2c(cc1N1CCC(N3CCN(Cc4cc(N5CCC(=O)NC5=O)cnc4F)CC3)CC1)C(C)(C)c1[nH]c3cc(C#N)ccc3c1C2=O [GT-07755, 8-(4-(4-((5-(2,4-dioxotetrahydropyrimidin-1(2H)-yl)-2-fluoropyridin-3-yl)methyl)piperazin-1-yl)piperidin-1-yl)-9-ethyl-6,6-dimethyl-11-oxo-6,11-dihydro-5H-benzo[b]carbazole-3-carbonitrile]
Degradation of substrate protein ALK (substrate protein remaining %) (ALK): A (A is defined as 0% ≤ substrate protein remaining % ≤ 80%)

CCc1cc2c(cc1N1CCC(N3CCN(Cc4cnc(N5CCC(=O)NC5=O)cn4)CC3)CC1)C(C)(C)c1[nH]c3cc(C#N)ccc3c1C2=O [GT-07756, 8-(4-(4-((5-(2,4-dioxotetrahydropyrimidin-1(2H)-yl)pyrazin-2-yl)methyl)piperazin-1-yl)piperidin-1-yl)-9-ethyl-6,6-dimethyl-11-oxo-6,11-dihydro-5H-benzo[b]carbazole-3-carbonitrile]
Degradation of substrate protein ALK (substrate protein remaining %) (ALK): A (A is defined as 0% ≤ substrate protein remaining % ≤ 80%)

Cc1cc(Nc2ncc(Cl)c(Nc3ccccc3S(=O)(=O)C(C)C)n2)c(OC(C)C)cc1C1CCN(Cc2cnc(N3CCC(=O)NC3=O)cn2)CC1 [GT-07758, 1-(5-((4-(4-((5-chloro-4-((2-(isopropylsulfonyl)phenyl)amino)pyrimidin-2-yl)amino)-5-isopropoxy-2-methylphenyl)piperidin-1-yl)methyl)pyrazin-2-yl)dihydropyrimidine-2,4(1H,3H)-dione]
Degradation of substrate protein ALK (substrate protein remaining %) (ALK): A (A is defined as 0% ≤ substrate protein remaining % ≤ 80%)

CCc1cc2c(cc1N1CCN(Cc3cc(N4CCC(=O)NC4=O)ncc3F)CC1)C(C)(C)c1[nH]c3cc(C#N)ccc3c1C2=O [GT-07833, 8-(4-((2-(2,4-dioxotetrahydropyrimidin-1(2H)-yl)-5-fluoropyridin-4-yl)methyl)piperazin-1-yl)-9-ethyl-6,6-dimethyl-11-oxo-6,11-dihydro-5H-benzo[b]carbazole-3-carbonitrile]
Degradation of substrate protein ALK (substrate protein remaining %) (ALK): A (A is defined as 0% ≤ substrate protein remaining % ≤ 80%)

CCc1cc2c(cc1N1CCN(Cc3ccnc(N4CCC(=O)NC4=O)c3)CC1)C(C)(C)c1[nH]c3cc(C#N)ccc3c1C2=O [GT-07834, 8-(4-((2-(2,4-dioxotetrahydropyrimidin-1(2H)-yl)pyridin-4-yl)methyl)piperazin-1-yl)-9-ethyl-6,6-dimethyl-11-oxo-6,11-dihydro-5H-benzo[b]carbazole-3-carbonitrile]
Degradation of substrate protein ALK (substrate protein remaining %) (ALK): A (A is defined as 0% ≤ substrate protein remaining % ≤ 80%)

CCc1cc2c(cc1N1CCN(Cc3cncc(N4CCC(=O)NC4=O)c3)CC1)C(C)(C)c1[nH]c3cc(C#N)ccc3c1C2=O [GT-07835, 8-(4-((5-(2,4-dioxotetrahydropyrimidin-1(2H)-yl)pyridin-3-yl)methyl)piperazin-1-yl)-9-ethyl-6,6-dimethyl-11-oxo-6,11-dihydro-5H-benzo[b]carbazole-3-carbonitrile]
Degradation of substrate protein ALK (substrate protein remaining %) (ALK): A (A is defined as 0% ≤ substrate protein remaining % ≤ 80%)

CCc1cc2c(cc1N1CCN(Cc3cc(C4CCC(=O)NC4=O)cnc3F)CC1)C(C)(C)c1[nH]c3cc(C#N)ccc3c1C2=O (stereo not drawn) [GT-07836, 8-(4-((5-(2,6-dioxopiperidin-3-yl)-2-fluoropyridin-3-yl)methyl)piperazin-1-yl)-9-ethyl-6,6-dimethyl-11-oxo-6,11-dihydro-5H-benzo[b]carbazole-3-carbonitrile]
Degradation of substrate protein ALK (substrate protein remaining %) (ALK): A (A is defined as 0% ≤ substrate protein remaining % ≤ 80%)

CCc1cc2c(cc1N1CCC(N3CCN(Cc4ncc(N5CCC(=O)NC5=O)cc4F)CC3)CC1)C(C)(C)c1[nH]c3cc(C#N)ccc3c1C2=O [GT-07924, 8-(4-(4-((5-(2,4-dioxotetrahydropyrimidin-1(2H)-yl)-3-fluoropyridin-2-yl)methyl)piperazin-1-yl)piperidin-1-yl)-9-ethyl-6,6-dimethyl-11-oxo-6,11-dihydro-5H-benzo[b]carbazole-3-carbonitrile]
Degradation of substrate protein ALK (substrate protein remaining %) (ALK): A (A is defined as 0% ≤ substrate protein remaining % ≤ 80%)
